According to patent US20250277191A1, “METHODS AND COMPOSITIONS FOR CRYOPRESERVING SUBPOPULATIONS OF LYMPHOCYTES” (Ossium Health, Inc., priority 2022, published 2025):
“Also recorded” adds a separate entry of the source.

Tests used:
[1] = test system: Hematopoietic cells and bone marrow; assay: CFU assay of bone marrow after thawing cells cryopreserved in DMSO; format: cell-based, human; conditions: for BFU-E / CFU-E / CFU-GEMM / CFU-GM / total CFU: after thawing, average score from duplicate wells
Method: Bone marrow prior to DMSO addition (designated “QC1”) was washed and resuspended at a concentration of 8×10^6 cells/ml in Rinse Media. Cells were aliquoted and mixed with equal volumes of DMSO solutions to yield final concentrations of either 2.5, 5 or 10% DMSO in Rinse Media. A 2.5 ml volume of each preparation was aliquoted in triplicate to 5 ml cryovials. After equilibrating for 5 minutes, the cryovials were placed in a CryoMed Controlled Rate Freezer and frozen using the following program: • Step 1. −1° C./minute to −86° C. • Step 2. −20° C./minute to −150° C. • Step 3. Hold at −150° C. The vials were transferred to LN2 after 5 minutes at −150° C. The following day, cryovials containing cryopreserved cells were thawed in a 37° C. water bath and transferred to a biological safety cabinet after sanitizing with 70% alcohol. The cells were transferred to a centrifuge tube and pelleted. After removing the supernatant, the cells were resuspended in 12.5 ml of Selection Media. The tubes were centrifuged again and the cell pellet was resuspended in final volume of 25 ml of Selection Media. Total cell counts were obtained using a Sysmex Hematology Analyzer. CFU assays were also performed. Fresh and as well as previously cryopreserved hematopoietic cells and bone marrow preparations were analyzed by CFU assay. Given the limited sample size, statistical analysis could not be performed.

[2] = test system: Hematopoietic cells and bone marrow; assay: Flow cytometry of HSPC and lymphocyte subsets in cryopreserved bone marrow; format: cell-based, human
Method: Bone marrow prior to DMSO addition (designated “QC1”) was washed and resuspended at a concentration of 8×10^6 cells/ml in Rinse Media. Cells were aliquoted and mixed with equal volumes of DMSO solutions to yield final concentrations of either 2.5, 5 or 10% DMSO in Rinse Media. A 2.5 ml volume of each preparation was aliquoted in triplicate to 5 ml cryovials. After equilibrating for 5 minutes, the cryovials were placed in a CryoMed Controlled Rate Freezer and frozen using the following program: • Step 1. −1° C./minute to −86° C. • Step 2. −20° C./minute to −150° C. • Step 3. Hold at −150° C. The vials were transferred to LN2 after 5 minutes at −150° C. The following day, cryovials containing cryopreserved cells were thawed in a 37° C. water bath and transferred to a biological safety cabinet after sanitizing with 70% alcohol. The cells were transferred to a centrifuge tube and pelleted. After removing the supernatant, the cells were resuspended in 12.5 ml of Selection Media. The tubes were centrifuged again and the cell pellet was resuspended in final volume of 25 ml of Selection Media. Total cell counts were obtained using a Sysmex Hematology Analyzer. Flow cytometry was performed using non-cryopreserved Hematopoietic cells and bone marrow QC1 sample for comparison. Panel design for flow cytometry with the following panel of conjugated antibodies (see Table 1). Each tube was stained with the viability dye 7-AAD after antibody staining. [table]

## C[S+](C)[O-] [DMSO, dimethyl sulfoxide]
[1]; 10% DMSO compared to 2.5 or 5% DMSO, qualitative
  CFU potential: significantly reduces
[1]; cryopreserved in 2.5% DMSO
  BFU-E: 11.5
  CFU-E: 7.5
  CFU-GEMM: 0.5
  CFU-GM: 7.5
  total CFU: 27
[1]; cryopreserved in 5% DMSO
  BFU-E: 11.5
  CFU-E: 6
  CFU-GEMM: 0.5
  CFU-GM: 9
  total CFU: 27
[1]; cryopreserved in 10% DMSO
  BFU-E: 4
  CFU-E: 3.5
  CFU-GEMM: 0
  CFU-GM: 0
  total CFU: 7.5
[2]; 2.5% DMSO compared to either 5 or 10%, FIG. 2B
  total CD3+ T cells: reduced
[2]; 2.5 or 5% DMSO compared with 10%, FIG. 2F
  Natural Killer cells (CD3-CD19-CD56+): highest
[2]; 5% DMSO compared with 2.5 and 10% DMSO, FIG. 2A
  percentage of viable CD45LOCD34+ HSPC in thawed products: highest; also recorded: enhanced
[2]; 10% DMSO compared to 2.5 and 5%, FIG. 2C
  percentage of CD3+CD4-CD8-gd TCR+ gd T cells: lowest
[2]; across 2.5, 5 and 10% DMSO
  gd T cells, sensitivity to DMSO concentration: relatively insensitive
[2]; across 2.5, 5 and 10% DMSO, FIG. 2D
  percentage of CD4+CDRA+CCR7+ naïve T cells: increased with increasing DMSO concentrations; also recorded: lowest with the lower DMSO concentrations
[2]; across 2.5, 5 and 10% DMSO, significant between 2.5 and 10%, FIG. 2E
  naïve CD8+ T cells: trend in decreasing; also recorded: relatively insensitive
[2]; cryopreserved in 5% DMSO versus fresh, FIG. 1A
  percentage of HSPC within the total viable cell population: increased with cryopreservation
[2]; cryopreserved in 5% DMSO versus fresh, FIG. 1B
  total population of T cells (CD3+): decreased; also recorded: reduced
[2]; cryopreserved in 5% DMSO versus fresh, FIG. 1C
  percentage of gd T cells: significant increase; also recorded: increased with cryopreservation
[2]; cryopreserved in 5% DMSO versus fresh, FIG. 1D and 1E
  percentage of CD4+/CD8+CDRA+CCL7+ naïve T cells: significantly decreased; also recorded: reduced
[2]; cryopreserved in 5% DMSO versus fresh, FIG. 1F
  percentage of NK cells: decreased following cryopreservation
